The results in this text go back to patent publication US8017828B2, “Utilization of rare sugars in plant or microorganism” (Shikoku Research Institute Incorporated, priority 2004, dated 2011).

Data set [1] has as its system tomato plant (variety: “House Momotaro”). The data set can be described thus: Germination of D-psicose treated tomato seeds on agar without Fusarium oxysporum. Format: in vivo. The following applies: no Fusarium oxysporum; D-psicose seed 0.05%, medium non. The protocol:
To be more specific, seeds of a tomato plant (variety: “House Momotaro”) were subjected to an immersion treatment by immersing them in a D-psicose solution at a concentration of from 0.01% (w/v) to 0.1% (w/v) for 15 minutes while stirring slowly, followed by air-drying on sterile gauze, and then used as treated seeds. […] At this time, test plots in which D-psicose was added to the agar medium at a concentration of from 0.01% (w/v) to 0.1% (w/v) were prepared. Then, the dishes were placed at 23° C. under the dark condition for 7 days to 10 days, and observation was carried out with regard to the elongation of shoot, the elongation of root, the shoot development rate, the infection state in root and the like.

Data set [2] relates to Fusarium oxysporum (IFO 31213 strain). Format: in vivo, tomato plant (variety: “House Momotaro”). The protocol:
By using a tomato plant and a strain of Fusarium oxysporum, which is a typical pathogenic bacterium of tomato, an effect of D-psicose during infection in a stage of raising seedlings thereof was examined.
To be more specific, seeds of a tomato plant (variety: “House Momotaro”) were subjected to an immersion treatment by immersing them in a 0.01% (w/v) D-psicose solution or a 0.007% (w/v) probenazole solution for 15 minutes while stirring slowly, followed by air-drying on sterile gauze, and then used as treated seeds. In the medium culture for raising seedlings (pete:pearlite:vermiculite=2:1:1), 0.01% (w/v) D-psicose or 0.007% (w/v) probenazole was mixed, and the soil was placed in black polypot plant containers with a diameter of 9 cm, and then, 4 seeds of the above treated seeds were sown in each pot. The seeds (20 seeds in total) were sown in 5 pots for each test plot. After sowing, the pots were placed in a growth chamber at 23° C. and 5,000 Lux (12-hour day length), and raising of seedlings was initiated. At 1 month and 2 months after the initiation of raising of seedlings, a suspension of mycelium of Fusarium oxysporum (IFO 31213 strain) was inoculated around the roots, whereby infection with Fusarium oxysporum was caused. After the inoculation of Fusarium oxysporum, the temperature was raised to 30° C., and cultivation was continued. At about 4 months after sowing, a survey was carried out with regard to the survival rate of plants, the conditions of browning of vascular bundles and roots, the stem diameter and the like.

The subject of data set [3] is cherry tomato plant “mini carol”. The data set can be described thus: Growth of cherry tomato seedlings with D-allose in nutrient solution. The format is in vivo. More on the design: key to Number of opening flowers: z: Bud formation could not be confirmed. The following applies: for Fresh leaf weight / Fresh stem weight / Number of leaves / Number of opening flowers / Stem diameter / Stem length: 4 weeks. The protocol: On Jul. 13, 2004, seeds of a cherry tomato plant “mini carol” (Sakata Seed Co., Ltd.) were sown one by one in the respective holes using 30 holes among the 253 holes of a rockwool (280 mm (width)×580 mm (length)), which was placed in a plastic container with a capacity of 8 L. In this plastic container, 1 L of each nutrient solution in which a fertilizer (Otsuka No. 1 (1.5 g/L) and Otsuka No. 2 (1.0 g/L)) was dissolved was poured, then, the cultivation was carried out in a glass chamber without heating. With regard to a treated plot, 7 treated plots in which a treatment liquid obtained by adding D-allose at 0 to 5 mM to the fertilizer nutrient solution was poured in the plastic container from July 20 when the seeds germinated completely were prepared. Incidentally, the treatment liquid was added in the same amount to the respective treated plots according to need. A survey was carried out with regard to the growth at 4 weeks after the initiation of the treatment.

For `O=C(CO)[C@H](O)[C@H](O)[C@H](O)CO` [D-psicose], in data set [1], the Root length is given as 7.4 cm and the Shoot length is on record as 6.7 cm. In addition, in data set [2] (in vivo), the “degree of chemical damage (yellow discoloration of leaves)” value is reported as “smaller than that of the case of probenazole”. In addition, the “Vascular bundle browning ratio” value in data set [2] (seed immersion (0.01% D-psicose or 0.007% probenazole), no seed treatment 25%) came out at 5%. For the same molecule, in data set [2] (seed immersion treatment), the Stem diameter entry is on record as “increased”. Further, in data set [2] (seed immersion with D-psicose solution), the “inhibitory effect on Fusarium wilt” value is recorded as “equal to or more than that of probenazole”.

As for `O=C[C@H](O)[C@H](O)[C@H](O)[C@H](O)CO` [D-allose], in data set [3] (0.01 mM), the flowering result is “promoting flowering”, the “promotion of growth in the stem length in comparison with the untreated plot” value was 33% and the “promotion of growth in the stem weight in comparison with the untreated plot” value is recorded as 67%. In addition, the growth result in data set [3] (5 mM) was “some growth inhibition”. Further, in data set [3] (D-allose 0.01 mM), the Fresh leaf weight stood at 10.9 g, the Fresh stem weight stood at 16.4 g, the Number of leaves is on record as 9.3 and the “Number of opening flowers” value was 0.6. In addition, in data set [3] (D-allose 0.01 mM), the Stem diameter was determined as 5.3 mm and the Stem length stood at 69.1 cm. In data set [3] (D-allose 0.05 mM), the Fresh leaf weight turned out to be 6.9 g, the Fresh stem weight was determined as 11.7 g, the Number of leaves is recorded as 8.9 and the “Number of opening flowers” value was 0.4. In data set [3] (D-allose 0.05 mM), this molecule gave a Stem diameter of 4.3 mm and a Stem length of 60.9 cm. Further, in data set [3] (D-allose 0.1 mM), the Fresh leaf weight is 8.6 g, the Fresh stem weight was 11.1 g, the Number of leaves is listed as 9.0 and the “Number of opening flowers” value was 0.0. In data set [3] (D-allose 0.1 mM), this molecule showed a Stem diameter of 4.3 mm and a Stem length of 56.7 cm. Besides, in data set [3] (D-allose 0.5 mM), the Fresh leaf weight is on record as 8.3 g, the Fresh stem weight came out at 11.2 g, the Number of leaves is given as 8.3 and the “Number of opening flowers” value came to 0.0. Moreover, in data set [3] (D-allose 0.5 mM), the Stem diameter came out at 4.5 mm and the Stem length is 57.0 cm. In data set [3] (D-allose 1.0 mM), the Fresh leaf weight was determined as 9.7 g, the Fresh stem weight was determined as 13.7 g, the Number of leaves is on record as 9.6 and the “Number of opening flowers” value came to 0.0. In data set [3] (D-allose 1.0 mM), the Stem diameter worked out at 4.8 mm and the Stem length was determined as 59.0 cm. Moreover, in data set [3] (D-allose 5.0 mM), the Fresh leaf weight is 4.8 g, the Fresh stem weight stood at 6.7 g, the Number of leaves is on record as 7.0 and the “Number of opening flowers” value was “z”. In data set [3] (D-allose 5.0 mM), this molecule had a Stem diameter of 4.2 mm and a Stem length of 40.4 cm.
